Test results from ChEMBL document CHEMBL1138948, “Design, synthesis, and evaluation of proline and pyrrolidine based melanocortin receptor agonists. A conformationally restricted dipeptide mimic approach” (J Med Chem, 2006).

What was measured:
[1] = Absorptive permeability across Caco-2 cell membrane; assay type: ADME, cell-based; settings: human, read-out: permeability (converted)
[2] = Exsorptive permeability across Caco-2 cell membrane; assay type: ADME, cell-based; settings: human, read-out: permeability (converted)
Melanocortin receptor 4 [3] = target: T1, Melanocortin receptor 4 (Homo sapiens, UniProt P32245); assay: Displacement of europium labeled NDP-alpha-MSH from human MC4R expressed in HEK293 cells; assay type: cell-based
T1 sequence (P32245 whole entry): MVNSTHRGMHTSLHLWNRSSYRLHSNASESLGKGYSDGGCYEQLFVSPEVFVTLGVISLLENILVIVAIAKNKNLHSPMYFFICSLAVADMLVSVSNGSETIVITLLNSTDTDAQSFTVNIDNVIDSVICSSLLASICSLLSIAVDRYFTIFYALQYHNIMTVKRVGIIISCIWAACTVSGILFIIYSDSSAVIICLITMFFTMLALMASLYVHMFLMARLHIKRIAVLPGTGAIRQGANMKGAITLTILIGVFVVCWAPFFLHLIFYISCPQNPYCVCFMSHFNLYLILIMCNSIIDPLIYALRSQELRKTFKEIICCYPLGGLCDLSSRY

Melanocortin receptor 4 [4] = target: T1, Melanocortin receptor 4; assay: Agonist activity at human MC4R transfected in HEK293 cells; assay type: functional, cell-based
[5] = target: T2, Melanocyte-stimulating hormone receptor (Homo sapiens, UniProt Q01726); assay: Displacement of europium labeled NDP-alpha-MSH from human MC1R expressed in HEK293 cells; assay type: cell-based
T2 sequence (Q01726 whole entry): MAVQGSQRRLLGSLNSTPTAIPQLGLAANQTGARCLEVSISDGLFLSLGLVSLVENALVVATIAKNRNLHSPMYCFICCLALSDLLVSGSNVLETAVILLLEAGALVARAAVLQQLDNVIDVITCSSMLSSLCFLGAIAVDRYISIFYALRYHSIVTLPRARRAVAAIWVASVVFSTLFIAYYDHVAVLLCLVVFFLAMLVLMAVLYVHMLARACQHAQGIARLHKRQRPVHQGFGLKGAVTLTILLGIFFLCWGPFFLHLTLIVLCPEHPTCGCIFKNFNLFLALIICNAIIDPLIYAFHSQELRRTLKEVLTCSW

[6] = target: Melanocortin receptor (M1 and M4) (Homo sapiens) (UniProt P32245+Q01726); assay: Selectivity for human MC4R over human MC1R; assay type: protein assay
Melanocortin receptor 3 [7] = target: T3, Melanocortin receptor 3 (Homo sapiens, UniProt P41968); assay: Agonist activity at human MC3R transfected in HEK293 cells; assay type: functional, cell-based
T3 sequence (P41968 whole entry): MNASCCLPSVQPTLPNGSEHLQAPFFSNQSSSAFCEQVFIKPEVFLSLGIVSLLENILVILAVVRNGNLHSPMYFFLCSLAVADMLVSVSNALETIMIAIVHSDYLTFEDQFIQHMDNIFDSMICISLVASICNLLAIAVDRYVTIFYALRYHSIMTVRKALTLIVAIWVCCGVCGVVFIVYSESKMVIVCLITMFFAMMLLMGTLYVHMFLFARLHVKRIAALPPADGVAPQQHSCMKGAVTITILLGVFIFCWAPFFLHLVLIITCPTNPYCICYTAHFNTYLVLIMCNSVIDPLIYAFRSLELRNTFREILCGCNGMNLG

[8] = target: T2, Melanocyte-stimulating hormone receptor; assay: Agonist activity at human MC1R transfected in HEK293 cells; assay type: functional, cell-based
Melanocortin receptor 3 [9] = target: T3, Melanocortin receptor 3; assay: Displacement of europium labeled NDP-alpha-MSH from human MC3R expressed in HEK293 cells; assay type: cell-based

Papp A→B [1] [×10⁻⁶ cm/s] | Papp [2] [×10⁻⁶ cm/s] | Ki (Melanocortin receptor 4 [3]) [nM] | EC50 (Melanocortin receptor 4 [4]) [nM] | Ki [5] [nM] | Selectivity ratio [6] | EC50 (Melanocortin receptor 3 [7]) [nM] | EC50 [8] [nM] | Ki (Melanocortin receptor 3 [9]) [nM] | SMILES
– | – | 2880 | 986 | 4.7 | – | 3720 | 8 | 7230 | CC(=O)N[C@@H](Cc1c[nH]cn1)C(=O)N[C@H](Cc1ccccc1)C(=O)N1C[C@H](OCc2ccc3ccccc3c2)C[C@H]1CCCN=C(N)N
– | – | 632 | 184 | 893 | – | 563 | 328 | 1490 | CC(=O)N[C@@H](CCC(N)=O)C(=O)N[C@H](Cc1ccccc1)C(=O)N1C[C@H](OCc2ccc3ccccc3c2)C[C@@H]1C(=O)NCCN=C(N)N
1 | 0.5 | 1580 | 152 | 13 | – | 340 | 3 | 824 | CC(=O)N[C@@H](Cc1cnc[nH]1)C(=O)N[C@H](Cc1ccccc1)C(=O)N1C[C@H](OCc2ccc3ccccc3c2)C[C@@H]1C(=O)NCCN=C(N)N
– | – | 17 | 3.7 | 0.65 | – | 15 | 0.3 | 26 | CC(=O)N[C@@H](Cc1cnc[nH]1)C(=O)N[C@H](Cc1ccccc1)C(=O)N1C[C@H](OCc2ccc3ccccc3c2)C[C@@H]1CCCN=C(N)N
– | – | 21 | 14 | 85 | 4 | 85 | 88 | 42 | CC(=O)N[C@@H](Cc1ccc(O)cc1)C(=O)N[C@H](Cc1ccccc1)C(=O)N1C[C@H](OCc2ccc3ccccc3c2)C[C@@H]1CCCN=C(N)N
– | – | 248 | 39 | 138 | – | 68 | 71 | 425 | CC(=O)N[C@@H](Cc1ccc(O)cc1)C(=O)N[C@H](Cc1ccccc1)C(=O)N1C[C@@H](OCc2ccc3ccccc3c2)C[C@@H]1CCCN=C(N)N
– | – | 1020 | 501 | 121 | – | 2470 | 104 | 3180 | NC(N)=NCCNC(=O)[C@H]1C[C@@H](OCc2ccc3ccccc3c2)CN1C(=O)[C@@H](Cc1ccccc1)NC(=O)C1CCNCC1
– | – | 18 | 4.3 | 35 | – | 42 | 45 | 50 | CC(=O)N[C@@H](CCC(N)=O)C(=O)N[C@H](Cc1ccccc1)C(=O)N1C[C@H](OCc2ccc3ccccc3c2)C[C@@H]1CCCN=C(N)N
– | – | 559 | 254 | 2050 | 4 | 1220 | 1340 | 501 | CC(=O)N[C@@H](Cc1ccc(O)cc1)C(=O)N[C@H](Cc1ccccc1)C(=O)N1C[C@H](OCc2ccc3ccccc3c2)C[C@@H]1C(=O)NCCN=C(N)N
– | – | 57 | 2.3 | 1.3 | – | 1.3 | 0.045 | 117 | CC(=O)N[C@@H](Cc1c[nH]cn1)C(=O)N[C@H](Cc1ccccc1)C(=O)N1C[C@@H](OCc2ccc3ccccc3c2)C[C@@H]1CCCN=C(N)N
– | – | 14 | 9 | 2970 | > 150 | 1130 | 1220 | 1960 | CC(=O)N[C@@H](Cc1c[nH]cn1)C(=O)N[C@H](Cc1ccccc1)C(=O)N1C[C@@H](OCc2ccc3ccccc3c2)C[C@H]1CCCN=C(N)N
– | – | 492 | 252 | 2450 | – | 1170 | 1810 | 2880 | CC(=O)N[C@@H](Cc1ccc(O)cc1)C(=O)N[C@H](Cc1ccccc1)C(=O)N1C[C@@H](OCc2ccc3ccccc3c2)C[C@H]1CCCN=C(N)N

Continued, molecule first:

SMILES | Papp A→B [1] [×10⁻⁶ cm/s] | Papp [2] [×10⁻⁶ cm/s] | Ki (Melanocortin receptor 4 [3]) [nM] | EC50 (Melanocortin receptor 4 [4]) [nM] | Ki [5] [nM] | Selectivity ratio [6] | EC50 (Melanocortin receptor 3 [7]) [nM] | EC50 [8] [nM] | Ki (Melanocortin receptor 3 [9]) [nM]
OC[C@@H](O)[C@@H](O)[C@H](O)[C@H](O)CO [MANNITOL] | 2.17 | 1.83 | – | – | – | – | – | – | –
N=C(N)NCCNC(=O)[C@H]1C[C@@H](OCc2ccc3ccccc3c2)CN1C(=O)[C@@H](Cc1ccccc1)NC(=O)[C@@H]1Cc2ccccc2CN1 | – | – | 411 | 97 | 1620 | 4 | 825 | 539 | 4390
CNC(=O)[C@H](Cc1ccc2ccccc2c1)NC(=O)[C@H](CCCN=C(N)N)NC(=O)[C@@H](Cc1ccccc1)NC(=O)[C@H](Cc1c[nH]cn1)NC(C)=O | – | – | 29 | 5.7 | 13 | – | 541 | 14 | 1200
NC(N)=NCCC[C@H]1C[C@@H](OCc2ccc3ccccc3c2)CN1C(=O)[C@@H](Cc1ccccc1)NC(=O)CCc1ccccc1 | – | – | 137 | 266 | 611 | – | 2050 | 585 | 403
NC(=O)C[C@H](N)C(=O)N[C@H](Cc1ccccc1)C(=O)N1C[C@@H](OCc2ccc3ccccc3c2)C[C@@H]1CCCN=C(N)N | – | – | 187 | 8 | 103 | – | 10 | 4.3 | 835
N=C(N)NCCNC(=O)[C@H]1C[C@@H](OCc2ccc3ccccc3c2)CN1C(=O)[C@@H](Cc1ccccc1)NC(=O)[C@@H]1CCCCN1 | – | – | 1380 | 292 | 631 | – | 1770 | 390 | 3850
NC(N)=NCCC[C@H]1C[C@@H](OCc2ccc3ccccc3c2)CN1C(=O)[C@@H](Cc1ccccc1)NC(=O)[C@@H]1CCCCN1 | – | – | 31 | 14 | 40 | – | 260 | 30 | 156
NC(N)=NCCC[C@H]1C[C@@H](OCc2ccc3ccccc3c2)CN1C(=O)[C@H](N)Cc1ccccc1 | – | – | 305 | 291 | 381 | – | 871 | 151 | 1240
N=C(N)NCCC[C@H]1C[C@H](OCc2ccc3ccccc3c2)CN1C(=O)[C@@H](Cc1ccccc1)NC(=O)[C@@H]1Cc2ccccc2CN1 | – | – | 97 | 36 | 562 | – | 214 | 72 | 529
CC(=O)N[C@H](Cc1ccccc1)C(=O)N1C[C@H](OCc2ccc3ccccc3c2)C[C@@H]1CCCN=C(N)N | 7.5 | 6.17 | 90 | 317 | 463 | – | 1380 | 232 | 289
